# Measured values taken from patent US20060128695A1, “Cyclic nucleotide phosphodiesterase inhibitors, preparation and uses” (NEURO3D, priority 2002, published 2006).
# Columns and labels:
# mice = test: Elevated plus maze test; format: in vivo, Balb/c or Swiss mice; conditions: oral, 1 hour before the test, all doses tested, recorded over 8 minutes, versus control
# Excerpt: This test was validated in the rat by Pellow in 1986 and in the mouse by Lister in 1987. It is based on an aversion to open spaces: the open arms elicit anxiety in the animals while the closed arms represent safety. By recording the frequency of entry into each arm, this test evaluates the anxiolytic effect of a molecule in comparison with a reference compound such as buspirone.
# Ten to eleven-week old Balb/c or Swiss mice were used for the test. Mice were randomly divided into a control group (treated with the vehicle) and other groups treated with the test compounds.
# The test apparatus was a PVC maze with a plexiglass lid, divided into four equivalent exploration arms (45×10 cm), all interconnected by a small platform (10×10 cm). The apparatus was placed 66 crn above the floor. Two arms were opened and the other two closed with a wall (height: 30 cm).
# After administration, the mouse was placed on the platform opposite the closed arm. The number of entries and the time spent in each open arm were recorded over 8 minutes.
# The treatment was administered 1 hour before the test. The compounds were given orally at different doses. N=10; *** p<0.005 and **** p<0.001 (versus control; Dunnett test).
# PDE2 = molecular target: T1, PDE2 (Bos taurus, UniProt P14099); test: Inhibition of PDE2, radioenzymatic phosphodiesterase assay; format: biochemical, bovine
# T1 construct: PDE2 was prepared from bovine endothelial cells by the same methods; endogenous in cells; host or cells: bovine endothelial cells
# T1 sequence (P14099 1-921): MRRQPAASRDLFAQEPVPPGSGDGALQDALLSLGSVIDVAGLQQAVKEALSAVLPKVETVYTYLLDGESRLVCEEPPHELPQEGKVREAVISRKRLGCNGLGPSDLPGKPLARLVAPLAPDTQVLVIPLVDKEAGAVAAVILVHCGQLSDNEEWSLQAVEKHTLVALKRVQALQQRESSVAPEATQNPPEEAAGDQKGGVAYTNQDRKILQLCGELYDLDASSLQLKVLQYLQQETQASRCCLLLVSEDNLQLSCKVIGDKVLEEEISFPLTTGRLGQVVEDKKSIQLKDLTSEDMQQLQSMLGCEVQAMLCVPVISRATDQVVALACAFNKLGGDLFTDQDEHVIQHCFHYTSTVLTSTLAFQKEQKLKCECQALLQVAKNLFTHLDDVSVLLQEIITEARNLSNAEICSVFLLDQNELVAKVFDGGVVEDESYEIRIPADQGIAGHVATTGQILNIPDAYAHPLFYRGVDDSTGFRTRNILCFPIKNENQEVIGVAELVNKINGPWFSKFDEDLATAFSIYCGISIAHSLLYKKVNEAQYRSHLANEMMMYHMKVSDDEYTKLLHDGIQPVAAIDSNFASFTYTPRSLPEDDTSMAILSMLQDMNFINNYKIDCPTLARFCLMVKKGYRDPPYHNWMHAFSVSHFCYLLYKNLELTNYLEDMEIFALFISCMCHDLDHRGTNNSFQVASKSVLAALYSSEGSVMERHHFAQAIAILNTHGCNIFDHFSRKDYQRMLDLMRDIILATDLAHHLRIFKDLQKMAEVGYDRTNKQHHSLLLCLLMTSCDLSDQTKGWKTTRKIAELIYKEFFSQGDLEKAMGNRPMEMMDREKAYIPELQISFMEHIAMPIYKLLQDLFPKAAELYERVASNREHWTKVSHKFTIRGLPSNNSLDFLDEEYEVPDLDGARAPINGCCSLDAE
# PDE1 = test: Selectivity: inhibition of PDE1, radioenzymatic phosphodiesterase assay; format: biochemical, bovine; conditions: 10 μM test compound; vascular smooth muscle
# Procedure: (§1) A 3 g segment of bovine aortic media cut into pieces with scissors was homogenized with an ultra-turrax then a potter glass/glass homogenizer in 7 volumes by weight of buffer A containing a protease inhibitor cocktail (20 mM Tris-HCl, 0.25 M saccharose, 2 mM magnesium acetate, 1 mM dithiothreitol, 5 mM EGTA, 2000 U/ml aprotinin, 10 mg/l leupeptin and 10 mg/l soya trypsic inhibitor). The homogenizate was centrifuged at 105,000 g for 1 hour. The supernatant was loaded on a DEAE-Sephacel column (15 x 1.6 cm) pre-equilibrated with buffer B (buffer A without the saccharose, EGTA and protease inhibitors). The column was washed until there was no detectable absorption at 280 nm, then eluted with a linear gradient of NaCl (0-0.5 M) in buffer B. 3-ml fractions were collected and enzyme activity was determined under the conditions described hereinbelow to localize the different enzymes PDE1, PDE3, PDE4 and PDE5 which were aliquoted and frozen at −80° C. (Lugnier et al., Biochem. Phamacol., 1986, 35: 1746-1751). PDE2 was prepared from bovine endothelial cells by the same methods (Lugnier and Schini, Biochem. Pharmacol., 1990, 39: 75-84).
# Cyclic nucleotide phosphodiesterase activity was determined by a radioenzymatic method using tritium-labelled cyclic GMP or AMP (1 μM) as substrate (Lugnier et al., 1986). ^3H-labelled adenosine or guanosine monophosphate formed by hydrolysis of the radiolabelled cyclic nucleotide was then converted to ^3H-labelled adenosine or guanosine in a second reaction with […] in excess. The nucleoside formed was separated from the nucleotides by anion exchange chromatography. Nucleoside radioactivity was determined by liquid scintillation counting. […]
# (§2) The activity of the compounds was evaluated on other phosphodiesterase isoforms, particularly basal state or calmodulin-activated PDEl from vascular smooth muscle, PDE3, PDE4 and PDE5 from vascular smooth muscle.
# (§3) The results obtained are presented in Tables 1 and 2 hereinbelow and are expressed as the percentage inhibition of enzymatic activity produced by […] of the test compound.
# PDE4 = test: Selectivity: inhibition of PDE4, radioenzymatic phosphodiesterase assay; format: biochemical, bovine; conditions: 10 μM test compound; vascular smooth muscle
# Procedure: as §1
# (§4) Cyclic nucleotide phosphodiesterase activity was determined by a radioenzymatic method using tritium-labelled cyclic GMP or AMP (1 μM) as substrate (Lugnier et al., 1986). ^3H-labelled adenosine or guanosine monophosphate formed by hydrolysis of the radiolabelled cyclic nucleotide was then converted to ^3H-labelled adenosine or guanosine in a second reaction with […] in excess. The nucleoside formed was separated from the nucleotides by anion exchange chromatography. Nucleoside radioactivity was determined by liquid scintillation counting. Enzymatic incubations were carried out under conditions allowing no more than 15% hydrolysis of the substrate; each point was performed in duplicate.
# as §2, §3
# PDE5 = molecular target: T2, PDE5 (Bos taurus, UniProt Q28156); test: Selectivity: inhibition of PDE5, radioenzymatic phosphodiesterase assay; format: biochemical, bovine; conditions: 10 μM test compound; vascular smooth muscle; read-out: PDE5 percentage inhibition at 10 μM
# T2 construct: localize the different enzymes PDE1, PDE3, PDE4 and PDE5 which were aliquoted and frozen; from tissue; host or cells: bovine aortic media (vascular smooth muscle)
# Procedure: as §1, §4, §2, §3
compound,measurement,setting,value
"COc1cc2c(cc1OC)N(C)C(=O)CN=C2c1cccc(C(N)=O)c1 [Compound 5a, 3-(7,8-dimethoxy-1-methyl-2-oxo-2,3-dihydro-1H-1,4-benzodiazepin-5-yl)-benzamide]",percentage of time spent in the open arms,mice,spent more time in the open arms
same,IC50,PDE2,1500 nM
same,PDE1 percentage inhibition at 10 μM,PDE1,13.2%
same,PDE4 percentage inhibition at 10 μM,PDE4,16.2%
same,inhibition at 10 µM,PDE5,17.6%
